# Experimental data reported in patent EP1143976B9, “BETA-D-2', 3' -DIDEHYDRO-2', 3' -DIDEOXY-5-FLUOROCYTIDINE FOR USE IN THE TREATMENT OF HIV INFECTIONS” (priority 1999, dated 2000).
# Where “and” joins values, the source holds several entries; their conditions need not be identical. Identical values can stand only once. Like-named read-outs stand apart in the source and are kept apart here.
# Key:
# [1] = test system: HIV-1 in acutely infected human PBM cells; experiment: Median effect and combination index analysis in acutely infected human PBM cells (Day 6); assay type: cell-based; details: Human immunodeficiency virus 1, PBMC, 144 h
# Description: (§1) Table 5 provides the median effective concentration and combinations index (C.I.) values for D-D4FC alone and in combination with AZT and D4T in acutely infected human PBM cells (Day6). Table 6 describes the effect of β-D and β-L-D4FC against HIV-1 and cloned viruses I human PBM cells.
# [2] = test system: HIV-1LAI; experiment: Antiviral susceptibility assay (inhibition of p24 antigen production) in MT-2 cells, starting virus; assay type: cell-based; details: Human immunodeficiency virus 1, MT2, 168 h, day 7 post infection, HIV-1LAI P0, wild type baseline
# Experimental: Cells. MT-2 cells (AIDS Research and Reference Reagent Program, National Institute of Allergy and Infectious Diseases, National Institutes of Health, contributed by D. Richman) were cultured in RPMI 1640 (Whittaker M.A., Bioproducts, Walkersville, MD) supplemented with 10% fetal bovine serum, 10 mM HEPES buffer, penicillin (50 IU/ml) and streptomycin (50 µg/ml).
# Viruses. HIV-1LAI, a molecularly cloned clinical isolate, was used both as the starting virus for the resistance selection as well as for the generation of recombinant mutants. Stock preparations of HIV-1LAI, were prepared by electrophorating 5-10 jig of proviral plasmid DNA into 1.3 x 10^7 MT-2 cells. At peak viral cytopathic effect (generally 7 days post transfection), the supernatant from infected cultures was collected, aliquoted and stored at -80°C until use. Virus preparations were titered by threefold endpoint dilution in MT-2 cells, and the TCID50 was calculated with the Reed and Muench equation.
# Antiviral susceptibility assays. Virus susceptibility to D-D4FC was measured by measuring percent inhibition of p24 antigen production. Briefly, MT-2 cells (1 x 10^5 cells/ml) were infected with virus at a moi of 0.01 in the presence of serial D-D4FC dilutions. Each dilution was tested in triplicate. […]
# [3] = test system: HIV-1p37 D-Fd4C#1; experiment: Antiviral susceptibility assay (p24 antigen) in MT-2 cells, D-D4FC selected virus, selection #1 passage 37; assay type: cell-based; details: V90I, R172K
# Experimental: (§2) Selection of resistant virus. Prior to starting the selection of D-D4FC resistant virus, the starting virus (HIV -1LAI) was passaged as cell-free virus for 10 cycles in MT-2 cells in the absence of drug. D-D4FC resistant virus was selected by serially passaging HIV-1LAI in MT-2 cells in the presence of gradually increasing concentrations of D-D4FC. The selection for D-D4FC resistant virus was conducted twice. Selection was initiated by inoculating 1 x 10^6 MT-2 cells with […] of virus. At peak viral cytopathic effect (4-7 days post infection), supernatant from the infected cultures was collected and 0.1-0.3 ml were subsequently used to initiate another cycle of infection. Supernatant was also aliquoted and stored at -80°C for characterization of selected virus. Virus was passaged at least three times at each concentration, the number of cycles at any given concentration of drug being dependent on the ability of virus to grow at the particular concentration of D-D4FC. During the first selection procedure, virus was passaged once in the absence of drug prior to increasing the drug concentration (Table 2). As a control, virus was also passaged in parallel in the absence of drug. […]
# Antiviral susceptibility assays. Virus susceptibility to D-D4FC was measured by measuring percent inhibition of p24 antigen production. […]
# [4] = test system: HIV-1p20 D-Fd4C#2; experiment: Antiviral susceptibility assay (p24 antigen) in MT-2 cells, D-D4FC selected virus, selection #2 passage 20; assay type: cell-based; details: mutations K65R, V179D; for EC50: p24 antigen, selection #2 passage 20
# Experimental: as §2
# (§3) Antiviral susceptibility assays. Virus susceptibility to D-D4FC was measured by measuring percent inhibition of p24 antigen production. Briefly, MT-2 cells (1 x 10^5 cells/ml) were infected with virus at a moi of 0.01 in the presence of serial D-D4FC dilutions. Each dilution was tested in triplicate. Culture supernatants were harvested day 7 post infection and assayed for p24 antigen production using a commercial assay (DuPont, NEN Products, Wilmington, Del.).
# [5] = test system: xxK65R; experiment: D-D4FC susceptibility of recombinant HIV-1 in MT-2 cells; assay type: cell-based
# Experimental: as §3
# (§4) Production of mutant recombinant HIV-1. Mutant RT was generated using the Altered SitesII in vitro Mutagenesis System (Promega, Madison, WI). Mutagenesis was carried out on HIV-1LAI, RT cloned into a mutagenesis vector (PALTER, Promega). The presence of the desired mutation was determined by direct sequencing of the RT gene. The mutant RT was subsequently ligated into the pxxHIV-1 LAI vector. Stocks of mutant virus were then prepared by electrophorating 5-10 µg of DNA into 1.3 x 10^7 MT-2 cells as described above.
# [6] = test system: xxK70N//R172K; experiment: as above; assay type: cell-based
# Experimental: as §3, §4
# [7] = test system: xxK70N; experiment: as above; assay type: cell-based
# Experimental: as §3, §4
# [8] = test system: xxR172K; experiment: as above; assay type: cell-based
# Experimental: as §3, §4
# [9] = test system: xxV901/R172K; experiment: as above; assay type: cell-based
# Experimental: as §3, §4
# [10] = test system: xxV90I; experiment: as above; assay type: cell-based
# Experimental: as §3, §4
# [11] = test system: 4xM184VPITT (184V,67N,70R,215Y,219Q); experiment: Effect against cloned viruses, in MT-2 cells; assay type: cell-based, HIV-1; details: for FI50: In MT-2 cells, EC50 relative to HIV-1LAV or xxBRUPITT
# [12] = test system: G2-2PITT (103N,41L,184V,210W,others); experiment: Effect against cloned viruses, in MT-2 cells; assay type: cell-based, HIV-1; details: for FI50: In MT-2 cells, EC50 relative to HIV-1LAV or xxBRUPITT
# [13] = test system: 215/41PITT; experiment: Effect against HIV-1 and cloned viruses in human PBM cells; assay type: cell-based; details: for FI50: EC50 relative to HIV-1LAV or xxBRUPITT
# Description: as §1
# [14] = test system: 4X AZTPITT (67N,70R,215Y,219Q); experiment: as above; assay type: cell-based; details: for EC50 / EC90: human PBM cells
# Description: as §1
# [15] = test system: HIV-1LAV; experiment: as above; assay type: cell-based; details: Human immunodeficiency virus 1, PBMC
# Description: as §1
# [16] = test system: M184V/T215YPITT; experiment: as above; assay type: cell-based; details: for FI50: EC50 relative to HIV-1LAV or xxBRUPITT; for FI90: EC90 relative to HIV-1LAV or xxBRUPITT
# Description: as §1
# [17] = test system: M184VPITT; experiment: as above; assay type: cell-based; details: for FI50: EC50 resistant virus relative to HIV-1LAV or xxBRUPITT; for FI90: EC90 resistant virus relative to HIV-1LAV or xxBRUPITT
# Description: as §1
# [18] = test system: T215YPITT; experiment: as above; assay type: cell-based; details: for FI50: EC50 relative to HIV-1LAV or xxBRUPITT; for FI90: EC90 relative to HIV-1LAV or xxBRUPITT
# Description: as §1
# [19] = test system: xxBRUPITT; experiment: as above; assay type: cell-based; details: Human immunodeficiency virus 1, PBMC
# Description: as §1
# [20] = test system: L-D4FC-res.(25 µM); experiment: as above; assay type: cell-based
# Description: as §1
# [21] = acutely infected human PBM cells, Day 6
# [22] = median effective concentration, acutely infected human PBM cells, Day 6, read-out: EC50
# [23] = Human immunodeficiency virus 1, MT2, In MT-2 cells (courtesy of Dr. J. Mellors)
# [24] = EC90 relative to HIV-1LAV or xxBRUPITT
# [25] = Human immunodeficiency virus 1, PBMC, human PBM cells
# [26] = Human immunodeficiency virus 1, PBMC
# [27] = In MT-2 cells (courtesy of Dr. J. Mellors)
# [28] = human PBM cells, L-D4FC-res.(25 µM) virus
structure (smiles),measurement,setting,value
"Cc1cn([C@H]2C[C@H](N=[N+]=[N-])[C@@H](CO)O2)c(=O)[nH]c1=O [AZT, 3'-azido-3'-deoxythymidine]",EC50,[1],3.3 nM
"Cc1cn([C@H]2C=C[C@@H](CO)O2)c(=O)[nH]c1=O [D4T, 2',3'-dideoxy-2',3'-didehydrothymidine]",EC90,[1]; [21],220 nM
same,EC50,[1]; [22],15 nM
"Nc1nc(=O)n([C@H]2C=C[C@@H](CO)O2)cc1F [D-D4FC, β-2',3'-didehydro-2',3'-dideoxy-5-fluorocytidine]",EC50,[2],210 nM
same,EC50,"[3]; Human immunodeficiency virus 1, MT2, p24 antigen, selection #1 passage 37, mutations K70N",4.07 µM
same,Fold Resistance,"[3]; versus wild type HIV-1LAI, mutations K70N, 10080 min",19.3 and 19.4
same,EC50,"[4]; Human immunodeficiency virus 1, MT2, MT-2 cells",1100 nM
same,EC50,[4]; MT-2 cells,1110 nM
same,Fold Resistance,"[4]; MT-2 cells, versus wild type HIV-1LAI, 10080 min",5.3
same,EC50,"[5]; Human immunodeficiency virus 1, MT2, recombinant xxK65R",1240 nM
same,Fold Resistance,"[5]; xxK65R versus xxLAI, 10080 min",3.9
same,EC50,"[6]; Human immunodeficiency virus 1, MT2",56 nM
same,Fold Resistance,"[6]; MT-2 cells, xxK70N/V901/R172K versus xxLAI, 10080 min",0.4
same,EC50,"[7]; Human immunodeficiency virus 1, MT2, recombinant xxK70N",240 nM
same,Fold Resistance,"[7]; xxK70N versus xxLAI, 10080 min",1.4
same,EC50,"[8]; Human immunodeficiency virus 1, MT2, recombinant xxR172K",230 nM
same,Fold Resistance,"[8]; xxR172K versus xxLAI, 10080 min",0.8
same,EC50,"[9]; Human immunodeficiency virus 1, MT2, recombinant xxV901/R172K",360 nM
same,Fold Resistance,"[9]; xxV901/R172K versus xxLAI, 10080 min",1.3
same,EC50,"[10]; Human immunodeficiency virus 1, MT2, recombinant xxV90I",250 nM
same,Fold Resistance,"[10]; xxV90I versus xxLAI, 10080 min",1.5
same,EC90,[1]; [21],78 nM
same,EC50,[1]; [22],7.6 nM
same,EC50,[11]; [23],45 nM
same,FI50,[11]; listed as β-D-D4FC,0.2
same,EC50,[12]; [23],40 nM
same,FI50,[12]; listed as β-D-D4FC,0.2
same,FI50,[13]; listed as β-D-D4FC,2
same,FI90,[13]; [24],1
same,EC50,[13]; [25],130 nM
same,EC90,[13]; [25],490 nM
same,FI50,[14]; EC50 relative to HIV-1LAV or xxBRUPITT,1
same,FI90,[14]; [24],1
same,EC50,[14]; [26],72 nM
same,EC90,[14]; [26],460 nM
same,EC50,[15],220 nM
same,EC90,[15],1320 nM
same,FI50,[16]; listed as β-D-D4FC,1
same,FI90,[16]; listed as β-D-D4FC,1
same,EC50,[16]; [25],57 nM
same,EC90,[16]; [25],470 nM
same,FI50,[17]; listed as β-D-D4FC,2
same,FI90,[17]; listed as β-D-D4FC,2
same,EC50,[17]; [25],140 nM
same,EC90,[17]; [25],1040 nM
same,FI50,[18]; listed as β-D-D4FC,1
same,FI90,[18]; listed as β-D-D4FC,1
same,EC50,[18]; [25],67 nM
same,EC90,[18]; [25],350 nM
same,EC50,[19],65 nM
"Nc1nc(=O)n([C@H]2C=C[C@@H](CO)O2)cc1F [β-L-D4FC, β-2',3'-didehydro-2',3'-dideoxy-5-fluorocytidine, reference compound]",EC50,[11]; [27],> 3300 nM
same,FI50,[11],>47
same,EC50,[12]; [27],> 3300 nM
same,FI50,[12],>47
same,FI50,[13],1
same,EC50,[14],16 nM
same,EC90,[14],110 nM
same,FI50,"[20]; EC50 relative to HIV-1LAV or xxBRUPITT, L-D4FC-res.(25 µM)",222
same,FI90,"[20]; EC90 relative to HIV-1LAV or xxBRUPITT, L-D4FC-res.(25 µM)",208
same,EC50,[20]; [28],7.56 µM
same,EC90,[20]; [28],33.3 µM
same,FI50,[16],332
same,FI90,[16],848
same,FI50,[17],146
same,FI90,[17],163
same,FI50,[18],0.2
same,FI90,[18],0.3
